In ChEMBL document CHEMBL3112471, “Synthesis and evaluation of anti-tubercular activity of 6-(4-substitutedpiperazin-1-yl) phenanthridine analogues” (Eur J Med Chem, 2014):
Converted amounts (≈) assume the structure as drawn.

Tests used:
[1] = test system: Mycobacterium tuberculosis; experiment: Antitubercular activity against Mycobacterium tuberculosis H37Rv after 5 days by microplate Alamar Blue assay; format: functional; details: 120 h
[2] = Selectivity index, ratio of IC50 for mouse RAW264.7 cells to MIC for Mycobacterium tuberculosis H37Rv; format: toxicity; details: read-out: Selectivity Index
RAW264.7 = experiment: Cytotoxicity against mouse RAW264.7 cells after 72 hrs by MTT assay; format: cell-based; details: RAW264.7, 72 h
[3] = Cytotoxicity against mouse RAW264.7 cells at 50 uM after 72 hrs by MTT assay; format: cell-based; details: read-out: INH

c1ccc(CCN2CCN(c3nc4ccccc4c4ccccc34)CC2)cc1
MIC99 [1]: 6.25 µg/mL (≈ 17 µM)

c1ccc(C(c2ccccc2)N2CCN(c3nc4ccccc4c4ccccc34)CC2)cc1
MIC99 [1]: 3.12 µg/mL (≈ 7.27 µM)

c1cnc(N2CCN(c3nc4ccccc4c4ccccc34)CC2)nc1
selectivity ratio [2]: > 25 | IC50 (RAW264.7): > 40 µg/mL | cytotoxicity at 72 h, 50 µM [3]: 18.2% | MIC99 [1]: 1.56 µg/mL (≈ 4.57 µM)

c1ccc(N2CCN(c3nc4ccccc4c4ccccc34)CC2)nc1
selectivity ratio [2]: > 25 | IC50 (RAW264.7): > 40 µg/mL | cytotoxicity at 72 h, 50 µM [3]: 16.4% | MIC99 [1]: 1.56 µg/mL (≈ 4.58 µM)

CCN1CCN(c2nc3ccccc3c3ccccc23)CC1
MIC99 [1]: 6.25 µg/mL (≈ 21.4 µM)

Oc1cccc(N2CCN(c3nc4ccccc4c4ccccc34)CC2)c1
MIC99 [1]: 3.12 µg/mL (≈ 8.79 µM)

O=C(O)c1cn(C2CC2)c2cc(N3CCN(C(=O)CN4CCN(c5nc6ccccc6c6ccccc56)CC4)CC3)c(F)cc2c1=O
MIC99 [1]: 12.5 µg/mL (≈ 19.7 µM)

C=Cc1ccc(CN2CCN(c3nc4ccccc4c4ccccc34)CC2)cc1
MIC99 [1]: 25 µg/mL (≈ 65.9 µM)

C(=C\c1ccccc1)/CN1CCN(c2nc3ccccc3c3ccccc23)CC1
MIC99 [1]: 25 µg/mL (≈ 65.9 µM)

c1ccc2c(c1)nc(N1CCNCC1)c1ccccc12
MIC99 [1]: 25 µg/mL (≈ 94.9 µM)

Cc1cccc(N2CCN(c3nc4ccccc4c4ccccc34)CC2)c1
MIC99 [1]: 6.25 µg/mL (≈ 17.7 µM)

Clc1ccc(N2CCN(c3nc4ccccc4c4ccccc34)CC2)cc1
MIC99 [1]: 50 µg/mL (≈ 134 µM)

Clc1ccccc1N1CCN(c2nc3ccccc3c3ccccc23)CC1
MIC99 [1]: 6.25 µg/mL (≈ 16.7 µM)

O=[N+]([O-])c1ccc(N2CCN(c3nc4ccccc4c4ccccc34)CC2)cc1
selectivity ratio [2]: > 25 | IC50 (RAW264.7): > 40 µg/mL | cytotoxicity at 72 h, 50 µM [3]: 21.4% | MIC99 [1]: 1.56 µg/mL (≈ 4.06 µM)

COc1cccc(N2CCN(c3nc4ccccc4c4ccccc34)CC2)c1
MIC99 [1]: 12.5 µg/mL (≈ 33.8 µM)

N#Cc1ccccc1N1CCN(c2nc3ccccc3c3ccccc23)CC1
MIC99 [1]: 50 µg/mL (≈ 137 µM)

COc1ccc2nc(C)cc(SCc3ccc(C(C)(C)C)cc3)c2c1
MIC [1]: 0.01 µg/mL (≈ 0.0284 µM)

CN1CCN(c2nc3ccccc3c3ccccc23)CC1
MIC99 [1]: 6.25 µg/mL (≈ 22.5 µM)

COc1ccc2cc(/C=N/Nc3ccnc4cc(OC)ccc34)ccc2c1
MIC [1]: 0.22 µg/mL (≈ 0.616 µM)

NNC(=O)c1ccncc1 [ISONIAZID]
MIC99 [1]: 0.36 µg/mL (≈ 2.63 µM)

CO[C@H]1/C=C/O[C@@]2(C)Oc3c(C)c(O)c4c(O)c(c(/C=N/N5CCN(C)CC5)c(O)c4c3C2=O)NC(=O)/C(C)=C\C=C\[C@H](C)[C@H](O)[C@@H](C)[C@@H](O)[C@@H](C)[C@H](OC(C)=O)[C@@H]1C [RIFAMPIN]
MIC99 [1]: 0.02 µg/mL (≈ 0.0243 µM)
